Legend:
[1] = biological target: type IV phosphodiesterase; assay: Type IV phosphodiesterase inhibiting activity; format: biochemical, human; settings: U937 type IV phosphodiesterase fraction, 0.28 μM cAMP, pH 7.5, 30° C., 30 minutes; read-out: PDEIV-IC50
Method in brief: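 PDE4 fraction from U937 cell lysate, separated on DEAE Sepharose, incubated with compound, 0.4 μCi 3H-cAMP (0.28 μM cAMP) and 5'-nucleotidase in Tris-HCl pH 7.5 with 1 mM MgCl2 for 30 min at 30 °C. Product radioactivity counted after QAE-Sephadex removal of substrate.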

[2] = tested on: TNF-α production by LPS stimulated macrophages; assay: TNF-α production inhibitory activity by LPS stimulated macrophages; format: cell-based; settings: Macrophage, BALB/c mouse peritoneal macrophages, cultured for 8 hours, ELISA
Method: The following assay was used to evaluate the ability of the compound of the present invention to suppress TNF-α production by LPS stimulated macrophages according to Immunopharmacol. 29, 121-127 (1995).
1) 6 to 10 week old female BALB/c mice were used, 2 ml portions of thioglycolate were intraperitoneally administered, and the abdominal cavities were washed by 10 ml of PBS after 4 days, whereby 1 to 2×10^7 peritoneal cells were obtained per mouse. These were suspended in a hemocyte solution (0.75% ammonium chloride, 17 mM tris-hydrochlorate buffer, pH7.2), centrifuged, then resuspended in an RPMI1640 medium including 10% fetal calf serum and seeded in a 96-well cell culture plate at a density of 1×10^5 cells/50 μl/well. Since these cells adhered strongly to the tissue culture plate and were positive in nonspecific esterase staining, they were used for the test as mouse peritoneal macrophages. Mouse peritoneal macrophages were precultured overnight at 37° C. in […] for the experiment.
2) E. Coli (serum type 055:B5) derived LPS was dissolved in PBS in a concentration of 1 mg/ml, then sterilized by filtration. The test compound was dissolved in DMSO to make a 1000-fold concentration solution of the final concentration of use. 10 μl of the above LPS stock solution (final concentration 10 μg/ml) and 1 μl of the tested substance stock solution were added and mixed in 0.5 ml of RPMI1640 medium containing 10% fetal calf serum. This was added to the above cells at 50 μl/well and cultured for 8 hours. The cultured supernatant was recovered from each well and the TNF-α concentration was measured by the ELISA method (Cytoscreen® Immunoassay Kit Mouse TNF-α, BioSourse International).
The comparative example was the compound described in WO-A-97-04775, Example 1, mentioned above.

mice = assay: Toxicity: death on intraperitoneal administration to mice for 5 weeks; format: in vivo; settings: 10 mg/kg per day intraperitoneally for 5 weeks
Text: Further, the compounds of the present invention are low in toxicity, and these compounds are expected to be high in safety.

Row | Compound | IC50 [1] [nM] | IC50 [2] [nM] | death (mice)
1 | O=C(Nc1c(Cl)cncc1Cl)c1cn([C@H]2CC[C@H](O)CC2)c2ncccc2c1=O [Example 117, N-(3,5-dichloropyridin-4-yl)-1-(trans-4-hydroxycyclohexyl)-1,4-dihydro[1,8]naphthylidin-4-one-3-carboxamide] | 3.7 | 2 | no death
2 | O=C1CCC(n2cc(C(=O)Nc3c(Cl)cncc3Cl)c(=O)c3cccnc32)CC1 [Example 120, N-(3,5-dichloropyridin-4-yl)-1-(4-oxocyclohexyl)-1,4-dihydro[1,8]naphthylidin-4-one-3-carboxamide] | 2.7 | 0.7 | no death
3 | CO[C@H]1CC[C@H](n2cc(C(=O)Nc3c(Cl)cncc3Cl)c(=O)c3cccnc32)CC1 [Example 127, N-(3,5-dichloropyridin-4-yl)-1-(trans-4-methoxycyclohexyl)-1,4-dihydro[1,8]naphthylidin-4-one-3-carboxamide] | 7.2 | 15 | no death
4 | O=C(Nc1ccncc1)c1cn(C2CC2)c2ncccc2c1=O [Example 139, N-(4-pyridyl)-1-cyclopropyl-1,4-dihydro[1,8]naphthylidin-4-one-3-carboxamide] | 240 | 370 | no death

— patent US6331548A, “1-cycloalkyl-1,8-naphthyridin-4-one derivative as type IV phosphodiesterase inhibitor” (Suntory Limited, priority 1998, dated 2001)
